{
  "source": "patent US6528048B1",
  "about": "“Ophthalmic solutions” (Rohto Pharmaceutical Co., Ltd., priority 1998, dated 2003)",
  "tested_on": "rabbit corneal epithelial cells",
  "assay": "Cytotoxicity, Neutral red assay",
  "type": "cell-based",
  "conditions": "cultured 2 days",
  "description": "Cytotoxicity of the compound (3) was evaluated by conducting a test according to the method of Neutral red assay using rabbit corneal epithelial cells of a CornePack kit (Kurabo Industries, Ltd.). The frozen cells of the primary culture were inoculated at a density of 4000 cells/cm^2 in a 25-cm^2 flask. The cells were cultured at 37° C. under an atmosphere of 5% CO2 for 5 days (the secondary culture) and then 100 μl aliquots of them were inoculated in the wells of a 96-well multi-plate at a cell density of 2500 cells/well. The culture was continued at 37° C. under an atmosphere of 5% CO2 for 3 days (tertiary culture). […] A 100 μl aliquot of the solutions was added into each well containing the corneal epithelial cells of the tertiary culture. The cells were further cultured at 37° C. under an atmosphere of 5% CO2 for 2 days. A 100 μl aliquot of a Neutral red solution (about 150 μg/ml) was added into each well. The cells were further cultured at 37° C. under an atmosphere of 5% CO2 for 2 hours to incorporate Neutral red into lysosomes of the viable cells. Then the culture supernatants were discarded by inverting the plate. A 200 μl aliquot of a solution containing formalin and calcium chloride were added into each well and the cells were fixed for 1 minute to improve the cell adhesion to the plate. The remaining Neutral red was washed out from the wells. Subsequently, the supernatants in the wells were discarded and 100 μl aliquots of a mixture consisting of acetic acid and ethanol were added to the wells. The plate was allowed to stand for 20 minutes to extract Neutral red incorporated in the viable cells. The amount of Neutral red was determined by measuring the absorbance at a wavelength of 540 nm. The averaged absorbance value of the blank (the measured value, which was obtained by the same assay procedure but in the absence of Neutral red, for the untreated control cells cultured under the same condition) was subtracted from the measured value of the sample to give the correction absorbance value. The viable cell rate was calculated from the ratio of the sample absorbance to the absorbance for the untreated cells according to the following equation. Viable cell rate in each plate=(Averaged absorbance of each test solution/Averaged absorbance of the untreated control)×100",
  "data": [
    {"compound": "N=C(NCCCCCCNC(=N)NC(=N)Nc1ccc(Cl)cc1)NC(=N)Nc1ccc(Cl)cc1.O=C(O)[C@H](O)[C@@H](O)[C@H](O)[C@H](O)CO.O=C(O)[C@H](O)[C@@H](O)[C@H](O)[C@H](O)CO", "note": "[Chlorhexidine gluconate]", "values": [
      {"measurement": "Viable cell rate", "setting": "test solution 1.0 μg/ml", "value": 103, "unit": "%"},
      {"measurement": "Viable cell rate", "setting": "test solution 2.5 μg/ml", "value": 74, "unit": "%"},
      {"measurement": "Viable cell rate", "setting": "test solution 5.0 μg/ml", "value": 49, "unit": "%"},
      {"measurement": "Viable cell rate", "setting": "test solution 10.0 μg/ml", "value": 3, "unit": "%"}
    ]},
    {"compound": "Benzalkonium chloride", "values": [
      {"measurement": "Viable cell rate", "setting": "test solution 0.5 μg/ml", "value": 60, "unit": "%"},
      {"measurement": "Viable cell rate", "setting": "test solution 1.0 μg/ml", "value": 52, "unit": "%"},
      {"measurement": "Viable cell rate", "setting": "test solution 2.5 μg/ml", "value": 49, "unit": "%"},
      {"measurement": "Viable cell rate", "setting": "test solution 5.0 μg/ml", "value": 2, "unit": "%"}
    ]}
  ]
}
